Data taken from ChEMBL document CHEMBL6087436, “The novel β-hairpin antimicrobial peptide D-G(RF)3 demonstrates exceptional antibacterial efficacy” (Eur J Med Chem, 2025).
≈ marks a conversion by molar mass, not a printed value. Calls of active or inactive are those of the source. The rule behind the calls is not given here.

Experiments:
Pseudomonas aeruginosa [1] = test: Antibacterial activity against Pseudomonas aeruginosa ATCC 27853 in presence of 1 mM MgCl2; assay type: functional, organism-based
Bacillus subtilis = test: Antibacterial activity against Bacillus subtilis ATCC 23857 assessed as inhibition of bacterial growth incubated for 18 hrs by microbroth dilution assay; assay type: functional
Cell membrane [2] = test: Induction of cell membrane permeability in Staphylococcus aureus assessed as bacterial adhesion at 2 times MIC by SEM analysis; assay type: subcellular
Escherichia coli [3] = test: Antimicrobial activity against Escherichia coli at 2 times MIC in presence of LPS preincubated for 1 hr followed by bacterial addition and measured after 6 hrs by LPS competitive inhibition assay; assay type: functional, organism-based
Cell membrane [4] = test: Induction of Cytoplasmic membrane depolarization in Escherichia coli at 1 to 4 times MIC measured for every 10 mins by DiSC3(5) dye based fluorescence method; assay type: subcellular
Staphylococcus aureus [5] = test: Synergistic antibacterial activity against Staphylococcus aureus assessed as fractional inhibitory concentration index in presence of polymyxin B incubated for 18 hrs by checkerboard method; assay type: functional
Staphylococcus aureus [6] = test: Antibacterial activity against Staphylococcus aureus ATCC 25923 assessed as inhibition of bacterial growth incubated for 18 hrs by microbroth dilution assay; assay type: functional
Cell membrane [7] = test: Induction of cell membrane permeability in Staphylococcus aureus assessed as bacterial aggregation into clusters at 2 times MIC measured after 30 mins by SEM analysis; assay type: subcellular
Pseudomonas aeruginosa [8] = test: Synergistic antibacterial activity against Pseudomonas aeruginosa assessed as fractional inhibitory concentration index in presence of rifampin incubated for 18 hrs by checkerboard method; assay type: functional
Cell membrane [9] = test: Induction of cell membrane permeability in Staphylococcus aureus assessed as bacterial aggregation into breakage at 2 times MIC measured after 2 hrs by SEM analysis; assay type: subcellular
Cell membrane [10] = test: Induction of Cytoplasmic membrane depolarization in Staphylococcus aureus at 4 times MIC measured for every 10 mins by DiSC3(5) dye based fluorescence method; assay type: subcellular
[11] = Acute toxicity in male balb/c mouse assessed as renal intracellular bleeding at 45.33 mg/kg, ip by H and E staining based analysis; assay type: organism-based; conditions: in vivo
Pseudomonas aeruginosa [12] = test: Synergistic antibacterial activity against Pseudomonas aeruginosa assessed as fractional inhibitory concentration index in presence of polymyxin B incubated for 18 hrs by checkerboard method; assay type: functional
Escherichia coli [13] = test: Synergistic antibacterial activity against Escherichia coli assessed as fractional inhibitory concentration index in presence of kanamycin incubated for 18 hrs by checkerboard method; assay type: functional
Klebsiella pneumoniae [14] = test: Bactericidal activity against Klebsiella pneumoniae ATCC 700603 assessed as bacterial eradication by measuring bacterial counts at 2 times MIC measured after 15 mins by Time killing assay relative to control; assay type: functional; conditions: 0.25 h
Cell membrane [15] = test: Induction of cell membrane permeability in Staphylococcus aureus assessed as bacterial dissolution at 2 times MIC measured after 30 mins by SEM analysis; assay type: subcellular
Cell membrane [16] = test: Induction of Outer membrane permeabilization in Escherichia coli at 1 times MIC by NPN-dye based fluorescence analysis; assay type: subcellular
Staphylococcus aureus [17] = test: Synergistic antibacterial activity against Staphylococcus aureus assessed as fractional inhibitory concentration index in presence of ciprofloxacin incubated for 18 hrs by checkerboard method; assay type: functional
[18] = Acute toxicity in male balb/c mouse assessed as hepatocyte necrosis at 45.33 mg/kg, ip by H and E staining based analysis; assay type: organism-based; conditions: in vivo
Cell membrane [19] = test: Induction of cell membrane permeability in Staphylococcus aureus assessed as bacterial collapse at 2 times MIC by SEM analysis; assay type: subcellular
Escherichia coli [20] = test: Inhibition of biofilm formation in Escherichia coli ATCC 25922 at 1 uM incubated for 24 hrs by crystal violet staining based analysis; assay type: functional, organism-based
[21] = Hemolytic activity in Kunming mouse erythrocytes assessed as hemolysis incubated for 1 hr by multimode reader analysis; assay type: toxicity, cell-based; conditions: erythrocyte
Cell membrane [22] = test: Induction of cell membrane permeability in Staphylococcus aureus assessed as bacterial aggregation into clusters at 2 times MIC measured after 2 hrs by SEM analysis; assay type: subcellular
Klebsiella pneumoniae [23] = test: Bactericidal activity against Klebsiella pneumoniae ATCC 700603 assessed as bacterial eradication by measuring bacterial counts at 1 times MIC measured after 30 mins by Time killing assay relative to control; assay type: functional; conditions: 0.5 h
Cell membrane [24] = test: Induction of cell membrane permeability in Staphylococcus aureus assessed as bacterial dissolution at 2 times MIC measured after 2 hrs by SEM analysis; assay type: subcellular
Cell membrane [25] = test: Induction of cell membrane permeability in Staphylococcus aureus assessed as bacterial aggregation into breakage at 2 times MIC measured after 30 mins by SEM analysis; assay type: subcellular
Staphylococcus aureus [26] = test: Antibacterial activity against Staphylococcus aureus ATCC 25923 in presence of 6 uM NH4Cl; assay type: functional, organism-based
[27] = Acute toxicity in male balb/c mouse assessed as mortality at 25 to 50 mg/kg, ip measured after 50 mins by karber method; assay type: organism-based; conditions: in vivo, dose 25-50 mg/kg
Cell membrane [28] = test: Induction of cell membrane permeability in Staphylococcus aureus assessed as bacterial aggregation at 2 times MIC measured after 30 mins by SEM analysis; assay type: subcellular
Escherichia coli [29] = test: Synergistic antibacterial activity against Escherichia coli assessed as fractional inhibitory concentration index in presence of rifampin incubated for 18 hrs by checkerboard method; assay type: functional
Cell membrane [30] = test: Induction of Inner membrane permeabilization in Escherichia coli ML-35 ATCC […] at 4 times MIC measured every 5 mins for 120 mins by ONPG dye based assay; assay type: subcellular
[31] = Acute toxicity in male balb/c mouse assessed as renal necrosis at 81.28 mg/kg, ip by H and E staining based analysis; assay type: organism-based; conditions: in vivo
Staphylococcus aureus [32] = test: Additive antibacterial activity against Staphylococcus aureus assessed as fractional inhibitory concentration index in presence of ciprofloxacin incubated for 18 hrs by checkerboard method; assay type: functional
[33] = Acute toxicity in male balb/c mouse assessed as mortality at 63.2 to 100 mg/kg, ip measured after 7 days by karber method; assay type: organism-based; conditions: in vivo, 168 h, dose 63.2-100 mg/kg, time 7 day
Cell membrane [34] = test: Induction of cell membrane permeability in Staphylococcus aureus assessed as rupture of bacteria with leaked contents at 2 times MIC measured after 30 mins by SEM analysis; assay type: subcellular
Klebsiella pneumoniae [35] = test: Bactericidal activity against Klebsiella pneumoniae ATCC 700603 assessed as bacterial eradication by measuring bacterial counts at 2 times MIC measured after 30 mins by Time killing assay relative to control; assay type: functional; conditions: 0.5 h
[36] = Acute toxicity in male balb/c mouse assessed as hepatocyte necrosis at 81.28 mg/kg, ip by H and E staining based analysis; assay type: organism-based; conditions: in vivo
Escherichia coli [37] = test: Antimicrobial activity against Escherichia coli at 2 times MIC in presence of LPS at 64 uM preincubated for 1 hr followed by bacterial addition and measured after 6 hrs by LPS competitive inhibition assay; assay type: functional, organism-based; conditions: time 7.0 hrs
Cell membrane [38] = test: Induction of Inner membrane permeabilization in Escherichia coli ML-35 ATCC […] at 2 times MIC measured every 5 mins for 120 mins by ONPG dye based assay; assay type: subcellular
Cell membrane [39] = test: Induction of cell membrane permeability in Staphylococcus aureus assessed as agglutination with leaked contents at 2 times MIC measured after 2 hrs by SEM analysis; assay type: subcellular
Escherichia coli [40] = test: Additive antibacterial activity against Escherichia coli assessed as fractional inhibitory concentration index in presence of kanamycin incubated for 18 hrs by checkerboard method; assay type: functional
Staphylococcus aureus [41] = test: Additive antibacterial activity against Staphylococcus aureus assessed as fractional inhibitory concentration index in presence of polymyxin B incubated for 18 hrs by checkerboard method; assay type: functional

Q: With `N=C(N)NCCC[C@@H](NC(=O)CNC(=O)[C@H]1CCCN1C(=O)[C@@H](CCCNC(=N)N)NC(=O)[C@@H](Cc1ccccc1)NC(=O)[C@@H](CCCNC(=N)N)NC(=O)[C@@H](Cc1ccccc1)NC(=O)[C@@H](CCCNC(=N)N)NC(=O)[C@H](N)Cc1ccccc1)C(=O)N[C@H](Cc1ccccc1)C(=O)N[C@H](CCCNC(=N)N)C(=O)N[C@H](Cc1ccccc1)C(=O)N[C@H](CCCNC(=N)N)C(=O)N[C@H](Cc1ccccc1)C(N)=O` as the molecule, how does the Activity (Pseudomonas aeruginosa [1]) read?
A: Active

Q: And the MIC (Bacillus subtilis)?
A: 2 µM (≈ 3.98 µg/mL)

Q: What about the Activity (Cell membrane [2]) of the same molecule?
A: Active

Q: And the Activity (Escherichia coli [3])?
A: inactive

Q: And the Activity (Cell membrane [4])?
A: Active

Q: What about the “fractional inhibitory concentration index (FICI)” value (Staphylococcus aureus [5]) of the same molecule?
A: 0.375

Q: What about the MIC (Staphylococcus aureus [6]) of the same molecule?
A: 4 µM (≈ 7.97 µg/mL)

Q: What about the Activity (Cell membrane [7]) of the same molecule?
A: Active

Q: What about the “fractional inhibitory concentration index (FICI)” value (Pseudomonas aeruginosa [8]) of the same molecule?
A: 0.313

Q: And the Activity (Cell membrane [9])?
A: Active

Q: And the Activity (Cell membrane [10])?
A: Active; Comparable Depolarization To Valinomycin Was Observed

Q: And the Activity [11]?
A: Toxic

Q: What about the “fractional inhibitory concentration index (FICI)” value (Pseudomonas aeruginosa [12]) of the same molecule?
A: 0.313

Q: What about the “fractional inhibitory concentration index (FICI)” value (Escherichia coli [13]) of the same molecule?
A: 0.313

Q: And the Activity (Klebsiella pneumoniae [14])?
A: 100%

Q: What about the Activity (Cell membrane [15]) of the same molecule?
A: Active

Q: What about the Activity (Cell membrane [16]) of the same molecule?
A: Active; Comparable Permeability To Polymyxin B Was Observed

Q: And the “fractional inhibitory concentration index (FICI)” value (Staphylococcus aureus [17])?
A: 0.313

Q: What about the Activity [18] of the same molecule?
A: Toxic

Q: What about the Activity (Cell membrane [19]) of the same molecule?
A: Active

Q: What about the inhibition (Escherichia coli [20]) of the same molecule?
A: Active

Q: And the MHC10 [21]?
A: > 256 µM

Q: And the Activity (Cell membrane [22])?
A: Active

Q: What about the Activity (Klebsiella pneumoniae [23]) of the same molecule?
A: 100%

Q: And the Activity (Cell membrane [24])?
A: Active

Q: And the Activity (Cell membrane [25])?
A: Active

Q: And the Activity (Staphylococcus aureus [26])?
A: Active

Q: And the Activity [27]?
A: Toxic

Q: What about the Activity (Cell membrane [28]) of the same molecule?
A: Active

Q: What about the “fractional inhibitory concentration index (FICI)” value (Escherichia coli [29]) of the same molecule?
A: 0.25

Q: And the Activity (Cell membrane [30])?
A: Active

Q: Which Activity (Pseudomonas aeruginosa [1]) does the source give for `N=C(N)NCCC[C@H](NC(=O)CNC(=O)[C@H]1CCCN1C(=O)[C@H](CCCNC(=N)N)NC(=O)[C@H](Cc1ccccc1)NC(=O)[C@H](CCCNC(=N)N)NC(=O)[C@H](Cc1ccccc1)NC(=O)[C@H](CCCNC(=N)N)NC(=O)[C@@H](N)Cc1ccccc1)C(=O)N[C@@H](Cc1ccccc1)C(=O)N[C@@H](CCCNC(=N)N)C(=O)N[C@@H](Cc1ccccc1)C(=O)N[C@@H](CCCNC(=N)N)C(=O)N[C@@H](Cc1ccccc1)C(N)=O` here?
A: Active

Q: And the MIC (Bacillus subtilis)?
A: 4 µM (≈ 7.97 µg/mL)

Q: And the MIC (Staphylococcus aureus [6])?
A: 4 µM (≈ 7.97 µg/mL)

Q: And the Activity [31]?
A: Toxic

Q: And the “fractional inhibitory concentration index (FICI)” value (Staphylococcus aureus [32])?
A: 0.563

Q: What about the “fractional inhibitory concentration index (FICI)” value (Pseudomonas aeruginosa [8]) of the same molecule?
A: 0.313

Q: And the Activity [33]?
A: Toxic

Q: And the Activity (Cell membrane [34])?
A: Active

Q: What about the Activity (Klebsiella pneumoniae [35]) of the same molecule?
A: 100%

Q: And the Activity [36]?
A: Toxic

Q: And the Activity (Escherichia coli [37])?
A: inactive

Q: What about the Activity (Cell membrane [38]) of the same molecule?
A: Active

Q: And the Activity (Cell membrane [39])?
A: Active

Q: What about the “fractional inhibitory concentration index (FICI)” value (Escherichia coli [40]) of the same molecule?
A: 0.563

Q: And the MHC10 [21]?
A: 512 µM

Q: And the Activity (Staphylococcus aureus [26])?
A: Active

Q: What about the “fractional inhibitory concentration index (FICI)” value (Staphylococcus aureus [41]) of the same molecule?
A: 0.625

Q: And the “fractional inhibitory concentration index (FICI)” value (Escherichia coli [29])?
A: 0.313
